Assay results from US20220324796A1, “ANTIBIOTIC COMPOUNDS” (The General Hospital Corporation, priority 2019, published 2022).
≈ marks a conversion by molar mass, not a printed value.

Key:
MRSA MW2 [1] = test: Antimicrobial activity (MIC) of bithionol analogs; assay type: cell-based, S. aureus; conditions: for antimicrobial activity compared with bithionol: in words (FIGS. 5, 13, 14)
Protocol: (§1) Minimal inhibitory concentration (MIC) assay. The MICs of antibiotics were determined by the standard micro-dilution method recommended by the Clinical and Laboratory Standards Institute. MIC assays were conducted in biological triplicate.

MRSA MW2 cells = test: Bacterial membrane permeability assay (SYTOX Green); assay type: cell-based, S. aureus; conditions: for membrane activity compared with bithionol: in words (FIGS. 5, 13, 14); for SYTOX Green membrane permeabilization: MRSA MW2 exponential-phase cells and/or persisters, in words
Protocol: Bacterial membrane permeability assay. Exponential-phase or stationary-phase S. aureus MW2 cells prepared as described above under Killing kinetics assay and Persister killing assay, respectively, were washed 3 times with the same volume of PBS. The washed cells were adjusted to OD600=0.4 with PBS. SYTOX Green (Molecular Probes, Waltham, Mass., USA) was added to 10 mL of the diluted bacterial suspension to a final concentration of 5 μM and incubated for 30 min at room temperature in the dark. 50 μl of the bacterial/SYTOX Green suspension was mixed with 50 μl of phosphate buffered saline (PBS) containing twice the desired concentrations of compounds in black, clear-bottom, 96-well plates (Corning no. 3904). Fluorescence was measured at room temperature using a spectrophotometer (SpectraMax M2, Molecular Devices) with excitation and emission wavelengths of 485 nm and 525 nm, respectively. All experiments were conducted in biological triplicate.

[2] = tested on: stationary-phase MRSA MW2 persisters; test: Persister killing assay; assay type: cell-based, S. aureus; conditions: for killing / viability of MRSA persisters: in words, 4 h treatment (FIGS. 5, 13, 14, 4B); for response of MRSA persisters to conventional antibiotics: 100× MIC
Protocol: (§2) Persister killing assay. […] Persister cells of MRSA MW2 or VRSA VRS1 were prepared by growing cultures overnight to stationary phase at 37° C. at 200 rpm and washing three times with PBS. 1 mL of ˜1×10^8 CFU/mL MRSA persisters was added to 1 mL of PBS containing a 2-fold higher concentration of the desired concentration of antibiotics in a 96-well assay block (Corning Costar 3960). For assays with daptomycin, PBS was supplemented with 50 μg/mL CaCl2. The assay block was incubated at 37° C. with shaking at 200 rpm. At various times, 400 μl samples were removed, washed once with PBS, serially diluted and spot-plated on TSA plates. Colonies were counted after overnight incubation at 37° C. to determine the titer of live cells. These experiments were conducted in triplicate.

MRSA BF1 = test: MIC assay (micro-dilution); assay type: cell-based, S. aureus; conditions: Staphylococcus aureus
Protocol: as §1
(§3) Antimicrobial activity of each analog was tested against four MRSA strains (MW2, BF1, BF2, and BF3), Pseudomonas aeruginosa (PA14), Klebsiella pneumonia (WGLW2), and Acinetobacter baumannii (ATCC 17978).

MRSA BF2 = test: MIC assay (micro-dilution); assay type: cell-based, S. aureus; conditions: Staphylococcus aureus
Protocol: as §1, §3

MRSA BF3 = test: MIC assay (micro-dilution); assay type: cell-based, S. aureus; conditions: Staphylococcus aureus
Protocol: as §1, §3

MRSA MW2 [3] = test: MIC assay (micro-dilution); assay type: cell-based, S. aureus; conditions: Staphylococcus aureus
Protocol: as §1, §3

K. pneumoniae WGLW2 = test: MIC assay (micro-dilution); assay type: cell-based, Klebsiella pneumonia; conditions: Klebsiella pneumoniae
Protocol: as §1, §3

A. baumannii ATCC 17978 = test: MIC assay (micro-dilution); assay type: cell-based; conditions: Acinetobacter baumannii, ATCC17978
Protocol: as §1, §3

P. aeruginosa PA14 = test: MIC assay (micro-dilution); assay type: cell-based; conditions: Pseudomonas aeruginosa
Protocol: as §1, §3

S. aureus MW2 = test: Membrane fluidity assay (Laurdan GP); assay type: cell-based; conditions: 32 μg/mL (FIG. 4), in words
Protocol: Membrane fluidity assay. Bacterial membrane fluidity was estimated by slightly modifying previously described methods. An overnight culture of S. aureus MW2 was diluted 1:1,000 in 25 mL TSB. The diluted culture was grown to OD600˜1.5 at 37° C. with shaking at 200 rpm, followed by 10 min incubation with 10 μM Laurdan at room temperature in the dark (Sigma-Aldrich, Cat # 40227). The stained cell culture was washed with PBS 4 times and concentrated 2 times. 100 μL of the 2-fold concentrated culture was mixed with 100 μL of phosphate buffered saline (PBS) containing twice the desired concentrations of compounds in black, clear-bottom, 96-well plates (Corning no. 3904). After 1 h incubation at room temperature in the dark, the Laurdan fluorescence intensities were measured using a spectrophotometer (SpectraMax M2, Molecular Devices) with emission wavelengths of 435 nm and 490 nm upon excitation at 350 nm. The Laurdan GP was calculated using the formula GP=(I435−I490)/(I435+I490). All experiments were conducted in biological triplicate.

18 S. aureus strains = test: MIC assay, S. aureus strains of the panel; assay type: cell-based; conditions: Staphylococcus aureus; range over the 18 S. aureus strains of the panel (FIG. 6)
Protocol: Bacterial strains and growth conditions. S. aureus strains were grown in tryptic soy broth (TSB) (BD, Franklin Lakes, N.J., USA). E. faecium and E. faecalis strains were grown in brain-heart infusion (BHI) broth (BD, Franklin Lakes, N.J., USA), and four Gram-negative species, Klebsiella pneumoniae, Acinetobacter baumannii, Pseudomonas aeruginosa, and Enterobacter aerogenes were grown in Luria Bertani (LB) broth (BD, Franklin Lakes, N.J., USA). All bacteria were grown at 37° C. at 200 r.p.m.
as §1

[4] = tested on: VRSA strain VRS1 persisters; test: Persister killing assay; assay type: cell-based, S. aureus; conditions: linezolid and daptomycin at 100× MIC; bithionol at indicated concentrations (FIG. 1E)
Protocol: as §2

[5] = tested on: MRSA strain MW2 persisters; test: Deep-seated mouse thigh infection model, bacterial load; assay type: in vivo; conditions: 30 mg/kg each agent, every 12 h for 3 days from 24 h post-infection
Protocol: Deep-seated mouse thigh infection model. […] Mice were euthanized at 96 h post-infection. […] Thighs were homogenized in PBS, serially diluted with PBS, and spot-plated on TSA plates.

Compound | antimicrobial activity compared with bithionol (MRSA MW2 [1]) | membrane activity compared with bithionol (MRSA MW2 cells) | melting point | killing / viability of MRSA persisters [2] | SYTOX Green membrane permeabilization (MRSA MW2 cells) | also measured
COc1c(Cl)cc(Cl)cc1Sc1cc(Cl)cc(Cl)c1OC [BT-OMe, bis-(3,5-Dichloro-2-methoxyphenyl)-sulfane] | complete nullification | complete nullification |  |  |  | 
Oc1c(Br)cc(Cl)cc1Sc1cc(Cl)cc(Br)c1O [BT-oBr, 6,6′-thio-bis-(2-bromo-4-chlorophenol)] | similar | similar | 178 to 180 °C |  |  | 
Oc1c(F)cc(Cl)cc1Sc1cc(Cl)cc(F)c1O [BT-oF, 6,6′-thio-bis-(4-chloro-2-fluorophenol)] | slightly reduced | slightly reduced | 159 to 161 °C | do not kill them | permeabilize MRSA persister cell membranes | 
Oc1c(Br)cc(Br)cc1Sc1cc(Br)cc(Br)c1O [BT-opBr, 6, 6′-thio-bis-(2,4-dibromophenol)] | similar | similar | 164 to 166 °C |  |  | 
Oc1c(F)cc(F)cc1Sc1cc(F)cc(F)c1O [BT-opF, 6,6′-thio-bis-(2,4-difluorophenol)] | slightly reduced | slightly reduced | 127 to 130 °C |  |  | 
Oc1c(Cl)cc(Br)cc1Sc1cc(Br)cc(Cl)c1O [BT-pBr, 6,6′-thio-bis-(4-bromo-2-chlorophenol)] | similar | similar | 200 to 202 °C |  |  | 
Oc1c(Cl)cc(F)cc1Sc1cc(F)cc(Cl)c1O [BT-pF, 6,6′-thio-bis-(2-chloro-4-fluorophenol)] | slightly reduced | slightly reduced | 140 to 142 °C | do not kill them | permeabilize MRSA persister cell membranes | 
NCCOc1c(Cl)cc(Cl)cc1Sc1cc(Cl)cc(Cl)c1OCCN [Compound 1] |  |  |  |  |  | MIC (MRSA BF1): 64 µg/mL (≈ 145 µM); MIC (MRSA BF2): 64 µg/mL (≈ 145 µM); MIC (MRSA BF3): 32 µg/mL (≈ 72.4 µM); MIC (MRSA MW2 [3]): 64 µg/mL (≈ 145 µM); MIC (K. pneumoniae WGLW2): 64 µg/mL (≈ 145 µM); MIC (A. baumannii ATCC 17978): 64 µg/mL (≈ 145 µM); MIC (P. aeruginosa PA14): > 64 µg/mL
[O-][S+](c1cc(Cl)cc(Cl)c1O)c1cc(Cl)cc(Cl)c1O [bitin-S] | decreased antimicrobial activity | reduced membrane activity |  | do not kill them | permeabilize MRSA persister cell membranes | MIC (MRSA MW2 [1]; bithionol analogs (FIGS. 5 and 13), strain not given): 8 µg/mL (≈ 21.5 µM); change in membrane fluidity (Laurdan GP) (S. aureus MW2): do not cause the change in membrane fluidity
CCCCCCCCCC(=O)N[C@@H](Cc1c[nH]c2ccccc12)C(=O)N[C@H](CC(N)=O)C(=O)N[C@@H](CC(=O)O)C(=O)N[C@@H]1C(=O)NCC(=O)N[C@@H](CCCN)C(=O)N[C@@H](CC(=O)O)C(=O)N[C@H](C)C(=O)N[C@@H](CC(=O)O)C(=O)NCC(=O)N[C@H](CO)C(=O)N[C@@H]([C@H](C)CC(=O)O)C(=O)N[C@@H](CC(=O)c2ccccc2N)C(=O)O[C@@H]1C [daptomycin] |  |  |  | does not kill MRSA persisters | does not induce rapid SYTOX Green membrane permeabilization | MIC (18 S. aureus strains): 0.5 to 8 µg/mL (≈ 0.309 to 4.94 µM); activity against VRSA VRS1 persisters [4]: nominal activity; response of MRSA persisters to conventional antibiotics [2]: high level of tolerance
CC(=O)NC[C@H]1CN(c2ccc(N3CCOCC3)c(F)c2)C(=O)O1 [linezolid] |  |  |  |  |  | activity against VRSA VRS1 persisters [4]: no; response of MRSA persisters to conventional antibiotics [2]: high level of tolerance
CN[C@H](CC(C)C)C(=O)N[C@H]1C(=O)N[C@@H](CC(N)=O)C(=O)N[C@H]2C(=O)N[C@H]3C(=O)N[C@H](C(=O)N[C@H](C(=O)O)c4cc(O)cc(O)c4-c4cc3ccc4O)[C@H](O)c3ccc(c(Cl)c3)Oc3cc2cc(c3O[C@@H]2O[C@H](CO)[C@@H](O)[C@H](O)[C@H]2O[C@H]2C[C@](C)(N)[C@H](O)[C@H](C)O2)Oc2ccc(cc2Cl)[C@H]1O [vancomycin] |  |  |  |  |  | effect on MRSA CFUs in the mouse thigh [5]: did not significantly reduce
gentamicin |  |  |  |  |  | effect on MRSA CFUs in the mouse thigh [5]: did not significantly reduce
